Data taken from patent US10078090B2, “SAB as a biomarker for degenerative diseases and therapeutic sensitivity in cancers” (The Florida International University Board of Trustees, priority 2014, dated 2018).
Entries after “also recorded” stand apart in the source; their conditions may differ. Where two headings read alike, the source gives them in different places.

Tests used:
Sab expression [1] = test: In-cell western for SAB expression in SH-SY5Y cells treated with 6-OHDA; format: cell-based, human; details: increasing sub-chronic doses of 6-OHDA (0-100.00 nM, 24 hours)
Description: Cells or tissue samples are placed in a fluorescent compatible plate (for example, a 96-well plate) and the sample can be fixed to the plate. The sample is then permeabilized using detergent to disrupt the plasma membrane. Primary antibodies to detect SAB (Abnova, Inc.) are then incubated with the samples. Following a brief wash, the cells are incubated with a fluorescently labeled secondary antibody used to recognize the primary antibody. The samples are washed again. The plate is then scanned on a Li-Cor Bioscience Odyssey CLx near-infrared scanner to measure the fluorescent signal from the sample. A high fluorescent signaling indicates a higher level of SAB protein, while a low fluorescence signal indicates a lower level of SAB protein.
An in-cell western allows detection of protein levels in cells cultured in a 96-well black walled plate. For this technique, the cells are fixed with paraformaldehyde following seeding and growth to 80% confluency. […] Using the LiCor Odyssey CLx near infrared imager, the relative amounts of protein in each well are quantified. […]
An example of in-cell western technology for the detection of SAB is shown in (FIG. 3). […] In a model of cytotoxicity, SH-SY5Y cells treated with increasing sub-chronic doses of the neurotoxin, 6-hydroxydopamine (6-OHDA) were seeded in a 96-well plate and monitored for SAB expression.

SAB [2] = test: SAB levels in rats injected with 6-OHDA (ventral midbrain western blot, blood cells); format: in vivo, rat
From the text: Parkinson's disease-like state was induced in animals by localizing treatment to the ventral midbrains of rats using 6-hydroxydopamine. Blood was obtained from 6-hydroxydopamine treated rats and the control rats. Levels of SAB protein or RNA encoding SAB proteins in platelets and other blood cells were higher in 6-hydroxydopamine treated rats compared to control rats.
Further, disruption of SAB-mediated signaling using a small peptide to block kinase binding to SAB prevented 6-OHDA-induced motor deficiencies in rats (FIG. 8).

[3] = patients; cited from earlier work
SAB [4] = test: SAB levels in response to chronic cytotoxic processes; details: treatment with CCCP
HeLa cells [5] = test: Calculation of paclitaxel and cisplatin IC50s by TO-PRO-3 staining; format: cell-based, human
Description: LY294002 was solubilized in dimethylformamide (DMF). HeLa cells were exposed to the indicated doses of LY294002 over 24 h for acute studies. […] For sub-chronic exposure, cells were dosed with 2 μM LY294002 for seven days. The media was exchanged every 48 h to sustain the drug concentrations.
Briefly, 10,000 cells were plated in a black-walled optically clear bottom 96-well plate. […] The cells were fixed in 4% paraformaldehyde for 25 min at room temperature, and stained with TO-PRO-3 (1 μM) in PBST (150 mM NaCl, 8 mM Na2HPO4, 3 mM KCl, 2 mM KH2PO4, pH 7.4, 0.05% Tween 20). The cells were then washed five times in PBST while gently rocking for 5 min at room temperature. Samples were protected from light during incubations. Assays were visualized on the Li-Cor Odyssey CLx imager, and IC50s were calculated using Graphpad® Prism.
Transient transfections with pLOC plasmids for expression and pLKO.1 plasmids for silencing (Open Biosystems) were used to modulate Sab levels. HeLa cells were plated at a density of 2×10^5 cells per 35-mm dish the day before transfections. Plasmids were mixed with FugeneHD (Promega) at a ratio of 3:1 according to the manufacturer's protocol. Protein levels were monitored by western blot analysis.
(§1) Studies using LY294002 have employed high doses (often >10 μM). […] For acute treatments, cells were dosed with 0.1% DMF or increasing concentrations of LY294002 (2 μM, 10 μM, and 50 μM) for 24 h.

HeLa cells [6] = test: LY294002 toxicity / viability of HeLa cells; format: cell-based, human
Description: LY294002 was solubilized in dimethylformamide (DMF). HeLa cells were exposed to the indicated doses of LY294002 over 24 h for acute studies. […] […] The media was exchanged every 48 h to sustain the drug concentrations.
as §1

Sab expression [7] = test: Sab expression in LY294002-treated HeLa cells by quantitative western blot; format: cell-based, human
Description: LY294002 was solubilized in dimethylformamide (DMF). HeLa cells were exposed to the indicated doses of LY294002 over 24 h for acute studies. The 24-h IC10 for LY294002 in HeLa cells to be ˜2 μM. For sub-chronic exposure, cells were dosed with 2 μM LY294002 for seven days. The media was exchanged every 48 h to sustain the drug concentrations.
Following 72 h of transfection, cells were lysed and proteins were harvested. Protein concentration was determined using the by Pierce BCA Assay kit. Proteins were resolved by SDS-PAGE, and transferred onto PVDF membranes. Membranes were incubated with Li-Cor Biosciences Odyssey Blocking for at least 1 h at room temperature. The membranes were then incubated with primary antibodies specific for Sab, JNK, p44/42 MAPK (Erk1/2), p38, GAPDH, Actin, Calnexin, TOM20, or α-tubulin at 1:1000 dilutions in blocking buffer. Membranes were washed three times for 5 min in PBST. Membranes were incubated with secondary antibodies in blocking buffer at 1:20,000 for fluorescently conjugated secondary antibodies. Membranes were again washed three times for 5 min in PBST. […]
(§2) Western blot images were acquired using the LI-COR Odyssey CLx imager. Fluorescence signals were acquired for the bands of interest. […]
HeLa cell mitochondria were primed using a sub-chronic (2 μM dose) of LY294002 for seven days. The concentration of SAB was monitored using quantitative western blot analysis on protein lysates taken on days 0, 3, and 7 of LY294002 treatment.
To determine if LY294002 impacted the concentration of JNK signaling on mitochondria, the expression of Sab was measured in HeLa cells in both acute and sub-chronic administration of LY294002. […] As time increased, there was a noticeable increase (˜8-fold) in Sab expression in the LY294002 compared to DMF-treated and untreated cells (FIG. 17B and quantified in FIG. 18B). […] To determine if mitochondrial translocation of JNK occurred during the sub-chronic treatment, mitochondrial isolates were analyzed for the presence of JNK on days 3 and 4 (the days of maximal JNK activation). […]

JNK = JNK activation and mitochondrial JNK in LY294002-treated HeLa cells by western blot; format: cell-based, human
Description: Following 72 h of transfection, cells were lysed and proteins were harvested. Protein concentration was determined using the by Pierce BCA Assay kit. Proteins were resolved by SDS-PAGE, and transferred onto PVDF membranes. Membranes were incubated with Li-Cor Biosciences Odyssey Blocking for at least 1 h at room temperature. The membranes were then incubated with primary antibodies specific for Sab, JNK, p44/42 MAPK (Erk1/2), p38, GAPDH, Actin, Calnexin, TOM20, or α-tubulin at 1:1000 dilutions in blocking buffer. Membranes were washed three times for 5 min in PBST. Membranes were incubated with secondary antibodies in blocking buffer at 1:20,000 for fluorescently conjugated secondary antibodies. Membranes were again washed three times for 5 min in PBST. Western blots were developed using the Odyssey CLx imager (Li-Cor Biosciences).
Mitochondria were isolated from HeLa cells. […]
as §2
To determine if LY294002 impacted the concentration of JNK signaling on mitochondria, the expression of Sab was measured in HeLa cells in both acute and sub-chronic administration of LY294002. […] As time increased, there was a noticeable increase (˜8-fold) in Sab expression in the LY294002 compared to DMF-treated and untreated cells (FIG. 17B and quantified in FIG. 18B). […]

[8] = tested on: SK-OV-3 ovarian cancer cells; test: Paclitaxel sensitivity of SK-OV-3 cells over-expressing SH3BP5; format: cell-based, human; details: paclitaxel following 48 hours of transfection

NCCc1cc(O)c(O)cc1O [6-OHDA, 6-hydroxydopamine]
SAB expression (Sab expression [1]): elevates SAB expression; also recorded: increased in a dose-dependent manner | Levels of SAB protein or RNA encoding SAB proteins in platelets and other blood cells (SAB [2]; 6-hydroxydopamine treated rats compared to control rats): higher | SAB levels in ventral midbrain (SAB [2]; rats stereotactically injected with 6-OHDA versus saline, six days post-injection): SAB levels increase; also recorded: elevated

Sc1ncnc2nc[nH]c12 [6-mercaptopurine]
Doses that can induce hepatotoxicity [3]: greater than 2 mg/kg

N#CC(C#N)=NNc1cccc(Cl)c1 [CCCP, carbonylcyanide m-chlorophenylhydrazone]
SAB levels (SAB [4]): increased

N.N.[Cl][Pt][Cl] [Cisplatin]
IC50 (HeLa cells [5]; read-out: Cisplatin IC50, Sab shRNA#2 + Sab:shRNA^r (rescue)): 0.0073 µM | IC50 (HeLa cells [5]; read-out: Cisplatin IC50, gene silencing, Sab shRNA#1): 0.0121 µM | IC50 (HeLa cells [5]; read-out: Cisplatin IC50, gene silencing, Sab shRNA#2): 0.0188 µM | IC50 (HeLa cells [5]; read-out: Cisplatin IC50, gene silencing, control shRNA): 0.0039 µM | IC50 (HeLa cells [5]; read-out: Cisplatin IC50, sub-chronic (7 days) 2 μM LY294002): 0.00054 µM | IC50 (HeLa cells [5]; read-out: Cisplatin IC50, untreated): 0.0032 µM

O=c1cc(N2CCOCC2)oc2c(-c3ccccc3)cccc12 [LY294002, 2-Morpholin-4-yl-8-phenylchromen-4-one]
HeLa cell viability (HeLa cells [6]; 2 μM LY294002, seven days): little impact | HeLa cell viability (HeLa cells [6]; 10 μM and 50 μM LY294002, seven days): lethal | 24-h IC10 for LY294002 (HeLa cells [6]; HeLa cells, 24 h): ~2 µM | Increase in Sab expression compared to DMF-treated and untreated cells (Sab expression [7]; 2 μM LY294002, 7 days): ~8 fold | SAB expression (in words) (Sab expression [7]; 2 μM LY294002 for seven days): pronounced increase; also recorded: significant increase; also recorded: increased SH3BP5 expression | Sab expression versus 0.1% DMF and untreated controls (Sab expression [7]; 2 μM, 10 μM and 50 μM LY294002 over 24 h): neither condition increased Sab expression | Increase in phospho-JNK levels (JNK; 2 μM LY294002, between days 2 and 4): over 10 fold | JNK levels on mitochondria (JNK; 2 μM LY294002, between days 3 and 4): increased

CC(=O)O[C@H]1C(=O)[C@@]2(C)[C@H]([C@H](OC(=O)c3ccccc3)[C@]3(O)C[C@H](OC(=O)[C@H](O)[C@@H](NC(=O)c4ccccc4)c4ccccc4)C(C)=C1C3(C)C)[C@]1(OC(C)=O)CO[C@@H]1C[C@@H]2O [Paclitaxel]
Sensitivity to paclitaxel of SH3BP5 over-expressing cells compared to mock and D-AKAP1 over-expressing cells [8]: 2.5 times | IC50 (HeLa cells [5]; Homo sapiens, HeLa, 24 h, acute (24 h) 2 μM LY294002, read-out: Paclitaxel IC50): 14.1 µM | IC50 (HeLa cells [5]; Homo sapiens, HeLa, 24 h, acute (24 h) 10 μM LY294002, read-out: Paclitaxel IC50): 6.3 µM | IC50 (HeLa cells [5]; Homo sapiens, HeLa, 24 h, acute (24 h) 50 μM LY294002, read-out: Paclitaxel IC50): 1.9 µM | IC50 (HeLa cells [5]; Homo sapiens, HeLa, 24 h, acute (24 h) 50 μM LY294002, read-out: Paclitaxel IC50 (as worded in text)): 1.9 µM | IC50 (HeLa cells [5]; Homo sapiens, HeLa, 24 h, acute (24 h) 0.1% DMF, read-out: Paclitaxel IC50): 13.6 µM | IC50 (HeLa cells [5]; Homo sapiens, HeLa, 168 h, sub-chronic (7 days) 2 μM LY294002, read-out: Paclitaxel IC50): 5.1 µM | IC50 (HeLa cells [5]; Homo sapiens, HeLa, 168 h, sub-chronic (7 days) 0.1% DMF, read-out: Paclitaxel IC50): 13.9 µM | IC50 (HeLa cells [5]; Homo sapiens, HeLa, Sab shRNA#2 + Sab:shRNA^r (rescue), read-out: Paclitaxel IC50): 28 µM | IC50 (HeLa cells [5]; Homo sapiens, HeLa, ectopic expression of RFP, read-out: Paclitaxel IC50): 13.4 µM | IC50 (HeLa cells [5]; Homo sapiens, HeLa, ectopic expression of Sab, read-out: Paclitaxel IC50): 4.7 µM | IC50 (HeLa cells [5]; Homo sapiens, HeLa, ectopic expression of Sab: KIM1/2-L/A, read-out: Paclitaxel IC50): 13.8 µM | IC50 (HeLa cells [5]; Homo sapiens, HeLa, gene silencing, Sab shRNA#1, read-out: Paclitaxel IC50): 61.8 µM | IC50 (HeLa cells [5]; Homo sapiens, HeLa, gene silencing, Sab shRNA#2, read-out: Paclitaxel IC50): 73.4 µM | IC50 (HeLa cells [5]; Homo sapiens, HeLa, gene silencing, control shRNA, read-out: Paclitaxel IC50): 15.3 µM | IC50 (HeLa cells [5]; Homo sapiens, HeLa, untreated, read-out: Paclitaxel IC50): 14.7 µM | Decrease in the IC50 of paclitaxel on increasing Sab expression (HeLa cells [5]; pLOC:Sab versus untreated, mock-transfected or RFP cells): 5 fold
